Article PMC12977544, “Phenotypic high-throughput screening identifies modulators of gut microbial choline metabolism” (mBio, 2026)

Assays:
E. coli MS 200-1 = assay: Growth-based phenotypic high-throughput screen (OD600 Z-scores, choline vs glycerol NCE medium); type: cell-based, Escherichia coli MS 200-1; details: 20 µg/mL; for Z-score from HTS, Zcho at T1 / Z-score from HTS, Zcho at T2: choline NCE medium; for Z-score from HTS, Zcho at T1 / Z-score from HTS, Zgly at T1: 7 h; for Z-score from HTS, Zcho at T2 / Z-score from HTS, Zgly at T2: 20 h; for Z-score from HTS, Zgly at T1 / Z-score from HTS, Zgly at T2: glycerol NCE medium
Protocol: The primary screen was performed in duplicate using the ChemDiv7 commercial library from the Institute of Chemistry and Cell Biology–Longwood (ICCB-L) Screening Facility, consisting of 49,128 compounds (Fig. 1D). Each compound was tested at a concentration of 20 µg/mL.
NCE media was adapted based on the “no carbon E” media as previously described ([14]), and contains 29 mM potassium phosphate monobasic, 29 mM potassium phosphate dibasic, 17 mM ammonium sodium phosphate dibasic, 40 mM sodium fumarate dibasic, 0.1% (wt/vol) casamino acids, and either 20 mM choline chloride or 3 g/L glycerol. This mixture was supplemented with 1 mM magnesium sulfate, 1% ATCC vitamin supplement, and 1% ATCC trace mineral supplement.
Compounds from the Institute of Chemistry and Cell Biology-Longwood Screening Facility (ICCB-L) commercial ChemDiv7 library were transferred to 384-well plates at 5 mg/mL in DMSO.
E. coli was grown anaerobically in LB media containing 1 mM choline chloride overnight at 37°C and then resuspended (two log-fold dilution) in either NCE media supplemented with 20 mM choline or 3 g/L glycerol for screening. The E. coli cultures were then added to the compound plates and incubated at 37°C anaerobically. The final concentration of compounds in culture was 20 µg/mL. OD600 was measured at 7 h and 20 h in duplicate compound plates. For control, 60 µg/mL kanamycin was used. Z-scores of each compound were calculated by measuring the number of standard deviations of each well’s OD600 with respect to the plate’s mean OD600. Compounds with a Z-score of less than –2 on choline but more than or equal to 0 on glycerol, in at least one replicate plate, were selected for further validation. Z’ was calculated using the control columns, as an internal quality control.

[1] = Quantification of inhibitor 45 in serum and cecal contents of gnotobiotic mice (LC–MS/MS); type: in vivo, Mus musculus C57BL/6; details: 24 h after inhibitor gavage
Protocol: Female C57BL/6 germ-free mice (n = 8 per inhibitor group), 10–12 weeks of age in an isolator, were colonized with 200 µL of mix containing the five bacterial species mentioned above at ~10^8 bacterial cells/mL. Mice were fed a 1% choline diet (Envigo) ad libitum. Two weeks after colonization, mice were administrated by gavage with 3 mg/kg of the inhibitor or vehicle between 6 and 8 a.m. once a day for three consecutive days. After a 10-day washout period, mice were orally administered 30 mg/kg of the inhibitor once a day (same time as above) for three consecutive days, and blood was collected 24 h after the last gavage.
A fecal sample was collected before the first gavage. At sacrifice, tissues collected were blood, cecal contents, a fecal pellet, proximal colon, distal small intestine, liver, and kidney. Mice were anesthetized with isoflurane and underwent cardiac puncture for a terminal blood draw, followed by cervical dislocation. Tissues were snap-frozen in liquid nitrogen. Blood was spun down at 8,000 × g for 8 min at room temperature; the resulting serum layer was removed and snap-frozen. All snap-frozen tissues were stored at −80°C until needed.
A standard curve of inhibitor 45 spiked in commercial mouse serum (Sigma) was prepared. To 50 µL of serum sample, 450 µL of a mixture 75% acetonitrile, 25% methanol, 1% formic acid was added to precipitate proteins. […]

[2] = first value of cell (replicate plate)
[3] = second value of cell (replicate plate)

Compound	Z-score from HTS, Zcho at T1 (E. coli MS 200-1; [2])	Z-score from HTS, Zcho at T1 (E. coli MS 200-1; [3])	Z-score from HTS, Zcho at T2 (E. coli MS 200-1; [2])	Z-score from HTS, Zcho at T2 (E. coli MS 200-1; [3])	Z-score from HTS, Zgly at T1 (E. coli MS 200-1; [2])	Z-score from HTS, Zgly at T1 (E. coli MS 200-1; [3])	Z-score from HTS, Zgly at T2 (E. coli MS 200-1; [2])	Z-score from HTS, Zgly at T2 (E. coli MS 200-1; [3])	Concentration in wet cecal mass [1] [pmol/µg]	concentration at 24 h ([1]; female, C57BL/6, mouse, serum, oral, 30 mg/kg, limit of detection 1 µM) [nM]
Cc1ccc(-c2cc(C(=O)NCCCN3CCc4ccccc4C3)c(C)[nH]2)cc1C [Compound 5]	−4.27	–4.23	0.16	–0.06	−1.42	0.61	0.83	1.41	–	–
Cc1ccc(-c2cc(C(=O)NCCCCCN3CCCCCC3)c(C)[nH]2)cc1C [Compound 45]	–	–	–	–	–	–	–	–	463	< 1000
